According to patent US20200331904A1, “3-AMINO-[1,2,4]-TRIAZOLE DERIVATIVES AND THEIR USE FOR CONTROLLING UNDESIRED PLANT GROWTH” (Bayer CropScience Aktiengesellschaft, priority 2017, published 2020):

Key:
Type in all cases: in vivo
Echinochloa crus-galli = test: Pre-emergence herbicidal efficacy, ECHCG; conditions: Table B1, application rate 320 g/ha, scored visually after about 3 weeks vs untreated controls
Text: (§1) C.1 Pre-Emergence Herbicidal Action and Crop Plant Compatibility
(§2) Seeds of monocotyledonous and dicotyledonous weed plants and crop plants are placed in plastic or organic planting pots and covered with soil. The compounds of the invention, formulated in the form of wettable powders (WP) or as emulsion concentrates (EC), are then applied onto the surface of the covering soil as aqueous suspension or emulsion with addition of 0.5% additive at a water application rate of […] (converted). After the treatment, the pots are placed in a greenhouse and kept under good growth conditions for the trial plants. After about 3 weeks, the effect of the preparations is scored visually in comparison with untreated controls as percentages. For example, 100% activity=the plants have died, 0% activity=like control plants.
(§3) ABUTH: Abutilon theophrasti ALOMY: Alopecurus myosuroides AMARE: Amaranthus retroflexus AVEFA: Avena fatua CYPES: Cyperus esculentus ECHCG: Echinochloa crus-galli LOLMU: Lolium multiflorum MATIN: Matricaria inodora PHBPU: Ipomoea purpurea POLCO: Polygonum convolvulus SETVI: Setaria viridis STEME: Stellaria media VERPE: Veronica persica VTOTR: Viola tricolor

Lolium rigidum = test: Pre-emergence herbicidal efficacy, LOLRI; conditions: Table B1, application rate 320 g/ha, scored visually after about 3 weeks vs untreated controls
Text: C.1 Pre-Emergence Herbicidal Action and Crop Plant Compatibility Seeds of monocotyledonous and dicotyledonous weed plants and crop plants are placed in plastic or organic planting pots and covered with soil. The compounds of the invention, formulated in the form of wettable powders (WP) or as emulsion concentrates (EC), are then applied onto the surface of the covering soil as aqueous suspension or emulsion with addition of 0.5% additive at a water application rate of […] (converted). After the treatment, the pots are placed in a greenhouse and kept under good growth conditions for the trial plants. After about 3 weeks, the effect of the preparations is scored visually in comparison with untreated controls as percentages. For example, 100% activity=the plants have died, 0% activity=like control plants. […] Here, for example, compound Nos. I-214 and I-196, when applied pre-emergence, have very good activity (80% to 100% herbicidal activity) against harmful plants such as Abutilon theophrasti, Amaranthus retroflexus, Echinochloa crus-galli, Lolium rigidum, Matricaria inodora, Polygonum convolvulus, Setaria viridis, Stellaria media, Veronica persica and Viola tricolor at an application rate of 0.32 kg of active substance or less per hectare. At the same time, some of the compounds according to the invention leave Gramineae crops such as barley, wheat, rye, millet/sorghum, corn, rice or sugar cane virtually undamaged when applied pre-emergence, even at high active compound dosages. In addition, some substances are also harmless to dicotyledonous crops such as soya, cotton, oilseed rape or sugar beet.

Setaria viridis = test: Pre-emergence herbicidal efficacy, SETVI; conditions: Table B1, application rate 320 g/ha, scored visually after about 3 weeks vs untreated controls
Text: as §1, §2, §3

Abutilon theophrasti = test: Pre-emergence herbicidal efficacy, ABUTH; conditions: Table B1, application rate 320 g/ha, scored visually after about 3 weeks vs untreated controls
Text: as §1, §2, §3

Amaranthus retroflexus = test: Pre-emergence herbicidal efficacy, AMARE; conditions: scored visually after about 3 weeks vs untreated controls
In short: (§4)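 Seeds were sown in pots and covered with soil; WP or EC formulations were sprayed onto the soil surface as aqueous suspension or emulsion with 0.5% additive. Pots were kept in a greenhouse, and after about 3 weeks damage was rated visually as percent versus untreated controls (100% = plants dead, 0% = like control).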

Matricaria inodora = test: Pre-emergence herbicidal efficacy, MATIN
In short: as §4

Polygonum convolvulus = test: Pre-emergence herbicidal efficacy, POLCO; conditions: scored visually after about 3 weeks vs untreated controls
In short: as §4

Stellaria media = test: Pre-emergence herbicidal efficacy, STEME
In short: as §4

Viola tricolor [1] = test: Pre-emergence herbicidal efficacy, VIOTR
In short: as §4

Veronica persica [2] = test: Pre-emergence herbicidal efficacy, VERPE; conditions: scored visually after about 3 weeks vs untreated controls
In short: as §4

Viola tricolor [3] = test: Post-emergence herbicidal efficacy, VIOTR
Text: as §3
(§5) C.2 Post-Emergence Herbicidal Action and Crop Plant Compatibility
(§6) Seeds of monocotyledonous and dicotyledonous weeds and crop plants are placed in sandy loam in plastic or organic planting pots, covered with soil and cultivated in a greenhouse under controlled growth conditions. 2 to 3 weeks after sowing, the test plants are treated at the one-leaf stage. The compounds of the invention, formulated in the form of wettable powders (WP) or as emulsion concentrates (EC), are then sprayed onto the green parts of the plants as aqueous suspension or emulsion with addition of 0.5% additive at a water application rate of […] (converted). After the test plants had been kept in the greenhouse under optimum growth conditions for about 3 weeks, the activity of the preparations is rated visually in comparison to untreated controls. For example, 100% activity=the plants have died, 0% activity=like control plants.

Veronica persica [4] = test: Post-emergence herbicidal efficacy, VERPE
Text: as §3, §5, §6

[5] = Table B1, application rate 320 g/ha
[6] = Table B1, application rate 320 g/ha, scored visually after about 3 weeks vs untreated controls
[7] = application rate 320 g/ha, rated visually after about 3 weeks (Table B7)
[8] = application rate 320 g/ha, scored visually after about 3 weeks
[9] = application rate 1280 g/ha, rated visually after about 3 weeks
[10] = Table B2, application rate 320 g/ha
[11] = Table B2, application rate 320 g/ha, scored visually after about 3 weeks vs untreated controls

| Compound | Herbicidal efficacy against VIOTR (Viola tricolor [3]; [7]) | Herbicidal efficacy against VERPE (Veronica persica [4]; [7]) | Herbicidal efficacy against MATIN (Matricaria inodora; [8]) | Herbicidal efficacy against STEME (Stellaria media; [8]) | Herbicidal efficacy against VIOTR (Viola tricolor [1]; [8]) | Herbicidal efficacy against VIOTR (Viola tricolor [3]; [9]) | Herbicidal efficacy against VERPE (Veronica persica [4]; [9]) | further results |
| --- | --- | --- | --- | --- | --- | --- | --- | --- |
| Cc1ccc2c(c1)C(Nc1nc3n(n1)CCCC[S+]3[O-])CC2 (stereo not shown) [Example I-245] | 80% | 90% | – | – | – | – | – | Herbicidal efficacy against ECHCG (Echinochloa crus-galli): 100%; Herbicidal efficacy against LOLRI (Lolium rigidum): 100%; Herbicidal efficacy against SETVI (Setaria viridis): 100%; Herbicidal efficacy against ABUTH (Abutilon theophrasti): 100%; Herbicidal efficacy against AMARE (Amaranthus retroflexus; [5]): 100%; Herbicidal efficacy against MATIN (Matricaria inodora; [6]): 100%; Herbicidal efficacy against POLCO (Polygonum convolvulus; [5]): 100%; Herbicidal efficacy against STEME (Stellaria media; [6]): 100%; Herbicidal efficacy against VIOTR (Viola tricolor [1]; [6]): 100%; Herbicidal efficacy against VERPE (Veronica persica [2]; [5]): 100% |
| Cc1ccc2c(c1)C(Nc1nc3n(n1)CCN(C(=O)c1cccc(Cl)c1)C3)C(C)C2 (stereo not shown) [Example I-170] | 80% | 90% | 90% | 100% | 100% | – | – | – |
| Cc1ccc2c(c1)[C@H](Nc1nc3n(n1)CCN(S(=O)(=O)c1ccccc1Cl)C3)[C@@H](C)C2 [Example I-195] | 80% | 80% | 90% | 100% | 100% | 90% | 90% | – |
| O=C1CCn2nc(NC3CCOc4ccccc43)nc2N1Cc1cccc(C(F)(F)F)c1 (stereo not shown) [Example I-273] | – | – | 80% | 100% | 100% | 90% | 100% | – |
| Cc1ccc2c(c1)[C@H](Nc1nc3n(n1)CCN(S(=O)(=O)Cc1ccccc1)C3)[C@@H](C)C2 [Example I-194] | 80% | 100% | 90% | 100% | 100% | – | – | – |
| Cc1ccc2c(c1)[C@H](Nc1nc3n(n1)CCN(S(=O)(=O)C1CC1)C3)[C@@H](C)C2 [Example I-192] | 80% | 80% | – | – | – | – | – | Herbicidal efficacy against AMARE (Amaranthus retroflexus; [10]): 100%; Herbicidal efficacy against MATIN (Matricaria inodora; [11]): 100%; Herbicidal efficacy against POLCO (Polygonum convolvulus; [10]): 100%; Herbicidal efficacy against STEME (Stellaria media; [11]): 100%; Herbicidal efficacy against VIOTR (Viola tricolor [1]; [11]): 100%; Herbicidal efficacy against VERPE (Veronica persica [2]; [10]): 100% |
| O=C1CCn2nc(NC3CCc4ccccc43)nc2N1CC1CC1 (stereo not shown) [Example I-219] | – | – | 100% | 100% | 100% | 80% | 90% | – |
| [O-][S+]1CCCCn2nc(NC3CCCc4ccccc43)nc21 (stereo not shown) [Example I-249] | – | – | – | – | – | 80% | 80% | Herbicidal efficacy against ECHCG (Echinochloa crus-galli): 100%; Herbicidal efficacy against SETVI (Setaria viridis): 100%; Herbicidal efficacy against ABUTH (Abutilon theophrasti): 100%; Herbicidal efficacy against AMARE (Amaranthus retroflexus; [5]): 100%; Herbicidal efficacy against MATIN (Matricaria inodora; [6]): 100%; Herbicidal efficacy against POLCO (Polygonum convolvulus; [5]): 100%; Herbicidal efficacy against STEME (Stellaria media; [6]): 100%; Herbicidal efficacy against VIOTR (Viola tricolor [1]; [6]): 100%; Herbicidal efficacy against VERPE (Veronica persica [2]; [5]): 100% |
| O=S(=O)(C1CC1)N1CCn2nc(NC3CCCc4ccccc43)nc2C1 (stereo not shown) [Example I-087] | 80% | 80% | 100% | 100% | 100% | 80% | 90% | – |
| Cc1ccc2c(c1)[C@H](Nc1nc3n(n1)CCN(S(=O)(=O)Cc1ccccc1)C3)CCC2 [Example I-202] | 80% | 80% | 90% | 100% | 100% | – | – | – |
| [O-][S+]1CCCCn2nc(NC3CCOc4ccccc43)nc21 (stereo not shown) [Example I-247] | – | – | 100% | 100% | 100% | 80% | 80% | – |
| Cc1ccc2c(c1)C(Nc1nc3n(n1)CCCN3S(=O)(=O)C1CC1)CCC2 (stereo not shown) [Example I-327] | 80% | 90% | 100% | 100% | 100% | – | – | Herbicidal efficacy against AMARE (Amaranthus retroflexus; [10]): 100%; Herbicidal efficacy against MATIN (Matricaria inodora; [11]): 100%; Herbicidal efficacy against STEME (Stellaria media; [11]): 100%; Herbicidal efficacy against VIOTR (Viola tricolor [1]; [11]): 100%; Herbicidal efficacy against VERPE (Veronica persica [2]; [10]): 100% |
| CC(=O)N1CCn2nc(NC3CCOc4ccccc43)nc2C1 (stereo not shown) [Example I-068] | – | – | 100% | 100% | 100% | 80% | 90% | – |
| Cc1ccc2c(c1)C(Nc1nc3n(n1)CCC(=O)N3CC1CCCCC1)CC2 (stereo not shown) [Example I-256] | – | – | – | – | – | – | – | Herbicidal efficacy against ECHCG (Echinochloa crus-galli): 90%; Herbicidal efficacy against LOLRI (Lolium rigidum): 80%; Herbicidal efficacy against SETVI (Setaria viridis): 100%; Herbicidal efficacy against ABUTH (Abutilon theophrasti): 100%; Herbicidal efficacy against AMARE (Amaranthus retroflexus; [5]): 100%; Herbicidal efficacy against MATIN (Matricaria inodora; [6]): 100%; Herbicidal efficacy against POLCO (Polygonum convolvulus; [5]): 100%; Herbicidal efficacy against STEME (Stellaria media; [6]): 100%; Herbicidal efficacy against VIOTR (Viola tricolor [1]; [6]): 100%; Herbicidal efficacy against VERPE (Veronica persica [2]; [5]): 100% |
